Laboratory results: ChEMBL document CHEMBL1128468, “Amino acid side chain descriptors for quantitative structure-activity relationship studies of peptide analogues” (J Med Chem, 1995)
Peptide text beside a SMILES is read from it.

target: Angiotensin-converting enzyme (Homo sapiens, UniProt P12821); assay: Biological activity was measured against Angiotensin I converting enzyme; settings: read-out: Log 1/IC50 (converted)
Sequence (P12821 whole entry): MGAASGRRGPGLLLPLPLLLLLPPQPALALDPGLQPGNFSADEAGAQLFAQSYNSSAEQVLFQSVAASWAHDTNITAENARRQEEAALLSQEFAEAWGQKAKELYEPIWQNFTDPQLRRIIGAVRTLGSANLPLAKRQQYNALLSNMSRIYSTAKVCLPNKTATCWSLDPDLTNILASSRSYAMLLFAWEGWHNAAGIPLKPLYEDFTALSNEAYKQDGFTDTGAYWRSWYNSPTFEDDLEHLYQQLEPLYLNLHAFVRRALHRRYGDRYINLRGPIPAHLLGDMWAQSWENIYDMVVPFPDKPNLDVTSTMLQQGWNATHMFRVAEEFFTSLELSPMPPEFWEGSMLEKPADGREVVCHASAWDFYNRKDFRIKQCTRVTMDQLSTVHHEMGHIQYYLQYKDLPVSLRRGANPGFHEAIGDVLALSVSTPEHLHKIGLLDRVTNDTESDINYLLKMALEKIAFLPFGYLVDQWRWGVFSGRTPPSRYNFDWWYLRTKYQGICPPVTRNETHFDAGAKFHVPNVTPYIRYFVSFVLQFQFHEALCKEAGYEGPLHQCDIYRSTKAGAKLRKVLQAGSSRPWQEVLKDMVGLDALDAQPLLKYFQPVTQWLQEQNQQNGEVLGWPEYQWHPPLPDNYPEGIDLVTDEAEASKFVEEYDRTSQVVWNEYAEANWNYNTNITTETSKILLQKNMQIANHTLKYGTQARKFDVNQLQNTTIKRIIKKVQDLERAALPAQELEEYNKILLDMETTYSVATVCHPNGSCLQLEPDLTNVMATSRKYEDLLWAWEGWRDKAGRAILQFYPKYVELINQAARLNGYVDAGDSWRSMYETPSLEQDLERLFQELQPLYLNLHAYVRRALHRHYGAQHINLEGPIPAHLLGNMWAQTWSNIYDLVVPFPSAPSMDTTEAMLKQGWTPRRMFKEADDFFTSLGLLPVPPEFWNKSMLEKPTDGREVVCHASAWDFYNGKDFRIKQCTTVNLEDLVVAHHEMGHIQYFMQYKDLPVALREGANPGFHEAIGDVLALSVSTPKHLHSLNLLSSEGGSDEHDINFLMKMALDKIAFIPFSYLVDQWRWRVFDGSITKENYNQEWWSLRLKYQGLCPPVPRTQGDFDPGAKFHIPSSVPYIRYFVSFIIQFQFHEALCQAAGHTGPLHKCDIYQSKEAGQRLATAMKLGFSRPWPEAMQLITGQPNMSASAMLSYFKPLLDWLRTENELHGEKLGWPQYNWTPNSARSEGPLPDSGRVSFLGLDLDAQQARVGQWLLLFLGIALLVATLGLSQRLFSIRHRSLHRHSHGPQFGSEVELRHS

IC50	SMILES
0.209 mM	NCC(=O)N[C@@H](Cc1ccc(O)cc1)C(=O)O (H-Gly-Tyr-OH)
1.2 mM	CC[C@H](C)[C@H](NC(=O)CN)C(=O)O (H-Gly-Ile-OH)
7.41 mM	NC(=O)CC[C@H](N)C(=O)NCC(=O)O (H-Gln-Gly-OH)
1.41 mM	CSCC[C@H](NC(=O)CN)C(=O)O
7.08 mM	NCC(=O)N[C@@H](CCC(N)=O)C(=O)O (H-Gly-Gln-OH)
0.0871 mM	C[C@H](N)C(=O)N[C@@H](Cc1ccc(O)cc1)C(=O)O (H-Ala-Tyr-OH)
8.51 mM	N[C@@H](CO)C(=O)NCC(=O)O (H-Ser-Gly-OH)
0.933 mM	CC[C@H](C)[C@H](N)C(=O)N[C@@H](Cc1ccccc1)C(=O)O (H-Ile-Phe-OH)
0.0158 mM	NC(N)=NCCC[C@H](N)C(=O)N[C@@H](Cc1c[nH]c2ccccc12)C(=O)O (H-Arg-Trp-OH)
5.75 mM	C[C@@H](O)[C@H](NC(=O)CN)C(=O)O (H-Gly-Thr-OH)
8.71 mM	CC(C)C[C@H](N)C(=O)NCC(=O)O (H-Leu-Gly-OH)
0.0302 mM	NCC(=O)N[C@@H](Cc1c[nH]c2ccccc12)C(=O)O (H-Gly-Trp-OH)
4.79 mM	CSCC[C@H](N)C(=O)NCC(=O)O (H-Met-Gly-OH)
0.457 mM	C[C@H](NC(=O)[C@@H](N)CCCN=C(N)N)C(=O)O (H-Arg-Ala-OH)
3.24 mM	N=C(N)NCCC[C@H](NC(=O)CN)C(=O)O (H-Gly-Arg-OH)
2 mM	C[C@H](NC(=O)CN)C(=O)O (H-Gly-Ala-OH)
9.12 mM	NCC(=O)N[C@@H](CC(=O)O)C(=O)O (H-Gly-Asp-OH)
0.38 mM	C[C@H](NC(=O)[C@@H](N)CCCCN)C(=O)O (H-Lys-Ala-OH)
10 mM	C[C@H](O)[C@H](N)C(=O)NCC(=O)O
0.912 mM	N=C(N)NCCC[C@H](NC(=O)[C@@H](N)Cc1ccccc1)C(=O)O (H-Phe-Arg-OH)
6.31 mM	N[C@@H](Cc1c[nH]cn1)C(=O)NCC(=O)O (H-His-Gly-OH)

IC50	SMILES
4.57 mM	CC(C)[C@H](NC(=O)CN)C(=O)O (H-Gly-Val-OH)
3.24 mM	CC(C)C[C@H](NC(=O)[C@@H](N)Cc1c[nH]cn1)C(=O)O (H-His-Leu-OH)
3.24 mM	NCCCC[C@H](N)C(=O)NCC(=O)O (H-Lys-Gly-OH)
0.182 mM	N=C(N)NCCC[C@H](N)C(=O)N1CCC[C@@H]1C(=O)O
14.1 mM	N[C@@H](CC(=O)O)C(=O)NCC(=O)O (H-Asp-Gly-OH)
0.457 mM	C[C@H](NC(=O)[C@@H](N)Cc1ccc(O)cc1)C(=O)O
0.01 mM	C[C@H](N)C(=O)N[C@@H](Cc1c[nH]c2ccccc12)C(=O)O (H-Ala-Trp-OH)
2.51 mM	C[C@H](N)C(=O)NCC(=O)O (H-Ala-Gly-OH)
1.2 mM	CC[C@H](C)[C@H](N)C(=O)NCC(=O)O (H-Ile-Gly-OH)
7.24 mM	NCC(=O)NCC(=O)O (H-Gly-Gly-OH)
5.37 mM	NCCCC[C@H](NC(=O)CN)C(=O)O (H-Gly-Lys-OH)
0.0219 mM	CC(C)[C@H](N)C(=O)N[C@@H](Cc1ccc(O)cc1)C(=O)O (H-Val-Tyr-OH)
5.89 mM	N[C@@H](Cc1c[nH]c2ccccc12)C(=O)NCC(=O)O (H-Trp-Gly-OH)
0.309 mM	CC(C)C[C@H](N)C(=O)N[C@@H](C)C(=O)O [LEU-ALA] (H-Leu-Ala-OH)
5.37 mM	NCC(=O)N[C@@H](CCC(=O)O)C(=O)O (H-Gly-Glu-OH)
3.09 mM	NCC(=O)N[C@@H](Cc1c[nH]cn1)C(=O)O (H-Gly-His-OH)
0.129 mM	CC[C@H](C)[C@H](N)C(=O)N1CCCC1C(=O)O (single isomer, unassigned)
3.8 mM	NCC(=O)N[C@@H](CO)C(=O)O (H-Gly-Ser-OH)
10 mM	N[C@@H](CCC(=O)O)C(=O)NCC(=O)O (H-Glu-Gly-OH)
1.1 mM	CC(C)[C@H](N)C(=O)NCC(=O)O [VAL-GLY] (H-Val-Gly-OH)
10 mM	C[C@H](NC(=O)[C@@H](N)CCC(=O)O)C(=O)O (H-Glu-Ala-OH)
